The source of these data is ChEMBL document CHEMBL1201862, “PubChem BioAssay data set” (2004).

Among the test systems are HCT-116; MDA-MB-231; Hs-578T; Malme-3M; NCI-H460; SF-295; COLO 205; CCRF-CEM; T47D; NCI-H23; HOP-92; SN12C; IGROV-1; MDA-MB-435; UO-31; HCT-15; NCI-H522; OVCAR-4; UACC-257.
Common to all, as to assay: NCI-60 cell line screen, 48 h

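Cells were grown in 96-well plates and exposed to each compound for 48 hours at five concentrations; endpoints were interpolated linearly between bracketing concentrations, or set to the highest concentration if not reached. The concentration for 50% growth inhibition is given as GI50.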 Activity calls are given as the source filed them. No stated cut-off is given here; in the data, active = GI50 up to about 1.1 µM and inactive = higher. Bounds are passed on as bounds.

As for `Cc1ccc(C(C)C)c(OCC(=O)N/N=C/c2c[nH]c3ccc(Br)cc23)c1`, the GI50 was 3.15 µM (inactive) in the test on HCT-116; 3.17 µM (inactive) with MDA-MB-231; 4.82 µM (inactive) with Hs-578T; 6.3 µM (inactive) with Malme-3M; 2.17 µM (inactive) in the test with NCI-H460; 2.45 µM (inactive) with SF-295. The GI50 is 1.69 µM (inactive) in the test with COLO 205; 2.11 µM (inactive) in the test with CCRF-CEM; 5.62 µM (inactive) in the test with T47D; 0.451 µM (active) with NCI-H23; 12.3 µM (inactive) in the test on HOP-92; 3.27 µM (inactive) in the test with SN12C. For the same molecule, the GI50 with IGROV-1 was 2 µM (inactive); with MDA-MB-435, 0.904 µM (active); in the test with UO-31, 3.49 µM (inactive); in the test with HCT-15, 2.1 µM; with NCI-H522 it was 1.43 µM (inactive); in the test with OVCAR-4 it was 3 µM (inactive). Further, in the test on UACC-257, the GI50 is 2.87 µM (inactive).
On to `O=[N+]([O-])c1cc(C2(N3CCCCC3)CCCCC2)sc1Br`, for which the GI50 in the test on HCT-116 is 11.7 µM (inactive); in the test on MDA-MB-231, 11 µM (inactive); in the test on Hs-578T, 7.05 µM (inactive); in the test with Malme-3M it was 3.44 µM (inactive); in the test on NCI-H460, 14.4 µM (inactive); in the test with SF-295, 15.3 µM (inactive). The GI50 in the test on COLO 205 was 3.82 µM (inactive); in the test on CCRF-CEM it was 2.08 µM (inactive); in the test on T47D, 1.87 µM (inactive); in the test with NCI-H23 it was 11.9 µM (inactive); with HOP-92 it was 8.81 µM (inactive); with SN12C, 5.15 µM (inactive). Moreover, the GI50 in the test on IGROV-1 was 11.4 µM (inactive); in the test with MDA-MB-435, 4.78 µM (inactive); in the test on UO-31, 12.1 µM (inactive); in the test on HCT-15 it was 5.02 µM; in the test on NCI-H522 it was 2.14 µM (inactive); in the test with OVCAR-4 it was 13 µM (inactive). The GI50 in the test on UACC-257 was 2.04 µM (inactive).
Take `CCOc1ccc2nc3nc(O)nc(C)c3c(NC(C)(CO)CO)c2c1`: the GI50 in the test with HCT-116, in the test with MDA-MB-231, in the test with Hs-578T, in the test on Malme-3M, in the test with NCI-H460 and in the test on SF-295 was > 100 µM (inactive) each time. The GI50 in the test on COLO 205, in the test with CCRF-CEM, in the test with T47D, with NCI-H23, in the test with HOP-92 and in the test with SN12C was > 100 µM (inactive) each time. The GI50 in the test on IGROV-1 was > 100 µM (inactive); in the test on MDA-MB-435, > 100 µM (inactive); in the test with UO-31, > 100 µM (inactive); in the test on HCT-15, over 100 µM; with NCI-H522, > 100 µM (inactive); in the test with OVCAR-4, > 100 µM (inactive). Moreover, in the test with UACC-257, the GI50 is > 100 µM (inactive).
With `CN(C)CCNC(=O)c1c(O)ccc2c1c1c(n2CCc2ccccc2)C(=O)c2ccccc2C1=O`, the GI50 with HCT-116 was 3.6 µM (inactive); in the test with MDA-MB-231, 5.27 µM (inactive); in the test with Hs-578T, 9.73 µM (inactive); with Malme-3M it was 3.63 µM (inactive); in the test on NCI-H460 it was 3.58 µM (inactive); in the test with SF-295, 4.06 µM (inactive). Moreover, the GI50 was 15.8 µM (inactive) in the test with COLO 205; 0.826 µM (active) with CCRF-CEM; 3.66 µM (inactive) with T47D; 14.4 µM (inactive) in the test on NCI-H23; 8.97 µM (inactive) with HOP-92; 6.56 µM (inactive) with SN12C. Further, the GI50 in the test with IGROV-1 is 8.47 µM (inactive); with MDA-MB-435 it was 2.17 µM (inactive); in the test with UO-31, 5.26 µM (inactive); in the test on HCT-15, 4.47 µM; in the test on NCI-H522, 8.67 µM (inactive); with OVCAR-4, 11.6 µM (inactive). In addition, in the test on UACC-257, the GI50 is 5.37 µM (inactive).
